Measurements: patent publication US20040087571A1, “Methods of using CCR1 antagonists as immunomodulatory agents” (Pfizer Inc, priority 2002, published 2004)

| SMILES | melting point [°C] |
| --- | --- |
| CC(C)(F)CC[C@H](C[C@H](O)[C@H](Cc1ccccc1)NC(=O)c1cnc2ccccc2n1)C(=O)NCCc1cccnc1 [Example 220, Quinoxaline-2-carboxylic acid [1(S)-benzyl-7-fluoro-2(S)-hydroxy-7-methyl-4(R)-(2-pyridin-3-yl-ethylcarbamoyl)-octyl]-amide] | 154 to 155 |
| CNC(=O)[C@H](CCC(C)C)C[C@H](O)[C@H](Cc1cccc(F)c1)NC(=O)c1cnc2ccccc2n1 [Example 134, Quinoxaline-2-carboxylic acid [1(S)-(3-fluoro-benzyl)-2(S)-hydroxy-7-methyl-4(R)-methylcarbamoyl-octyl]-amide] | 158.5 to 159.5 |
| NC(=O)[C@H](Cc1ccc(OC(F)(F)F)cc1)C[C@H](O)[C@H](Cc1ccccc1)NC(=O)c1cnc2ccccc2n1 [Example 193, Quinoxaline-2-carboxylic acid [1(S)-benzyl-4(R)-carbamoyl-2(S)-hydroxy-5-(4-trifluoromethoxy-phenyl)-pentyl]-amide] | 184 to 187 |
| CC(C)CC[C@H](C[C@H](O)[C@H](Cc1cccc(F)c1)NC(=O)c1cnc2ccccc2n1)C(N)=O [Example 135, Quinoxaline-2-carboxylic acid [4(R)-carbamoyl-1(S)-(3-fluoro-benzyl)-2(S)-hydroxy-7-methyl-octyl]-amide] | 191 to 191.5 |
| CC(C)CCNC(=O)[C@H](CC(C)C)C[C@H](O)[C@H](Cc1ccccc1)NC(=O)c1cnc2ccccc2c1 [Example 48, Quinoline-3-carboxylic acid [1(S)-benzyl-2(S)-hydroxy-6-methyl-4(R)-(3-methyl-butylcarbamoyl)-heptyl]-amide] | 153 to 154 |
| COc1cccc(CNC(=O)[C@H](CCC(C)(C)F)C[C@H](O)[C@H](Cc2ccccc2)NC(=O)c2cnc3ccccc3n2)c1OC [Example 242, Quinoxaline-2-carboxylic acid [1(S)-benzyl-4(R)-(2,3-dimethoxy-benzylcarbamoyl)-7-fluoro-2(S)-hydroxy-7-methyl-octyl]-amide] | 99 to 101 |
| CC(C)(F)CC[C@H](C[C@H](O)[C@@H](NC(=O)c1cnc2ccccc2n1)c1ccccc1)C(N)=O [Example 266, Quinoxaline-2-carboxylic acid (4(R)-carbamoyl-7-fluoro-2(S)-hydroxy-7-methyl-1(S)-phenyl-octyl)-amide] | 159 to 160.5 |
| CC(C)(F)CC[C@H](C[C@H](O)[C@H](Cc1ccccc1)NC(=O)c1cnc2ccccc2n1)C(=O)NCc1cccnc1 [Example 199, Quinoxaline-2-carboxylic acid {1(S)-benzyl-7-fluoro-2(S)-hydroxy-7-methyl-4(R)-[(pyridin-3-ylmethyl)-carbamoyl]-octyl}-amide] | 188 to 191 |
| CC(C)(O)CC[C@H](C[C@H](O)[C@H](Cc1ccccc1F)NC(=O)c1cnc2ccccc2n1)C(N)=O [Example 321, Quinoxaline-2-carboxylic acid [4(R)-carbamoyl-1(S)-(2-fluoro-benzyl)-2(S),7-dihydroxy-7-methyl-octyl]-amide] | 147 to 148 |
| CC(C)(O)CC[C@H](C[C@H](O)[C@H](Cc1cccc2ccccc12)NC(=O)c1cnc2ccccc2n1)C(N)=O [Example 324, Quinoxaline-2-carboxylic acid (4(R)-carbamoyl-2(S),7-dihydroxy-7-methyl-1(S)-naphthalen-1-ylmethyl-octyl)-amide] | 155 to 158 |
| CNC(=O)[C@H](CC(C)C)C[C@H](O)[C@H](Cc1ccc(O)cc1)NC(=O)c1cnc2ccccc2c1 [Example 44, Quinoline-3-carboxylic acid [2(S)-hydroxy-1(S)-(4-hydroxy-benzyl)-6-methyl-4(R)-methylcarbamoyl-heptyl]-amide] | 220.5 to 222.5 |
| CNC(=O)[C@H](CC(C)C)C[C@H](O)[C@H](CC1CCC(F)(F)CC1)NC(=O)c1cnc2ccccc2n1 [Example 108, Quinoxaline-2-carboxylic acid [1(S)-(4,4-difluoro-cyclohexylmethyl)-2(S)-hydroxy-6-methyl-4(R)-methylcarbamoyl-heptyl]-amide] | 95 to 98 |
| CC(C)(F)CC[C@H](C[C@H](O)[C@H](Cc1ccccc1)NC(=O)c1cnc2ccccc2n1)C(=O)NCCc1c[nH]c2ccccc12 [Example 230, Quinoxaline-2-carboxylic acid {1(S)-benzyl-7-fluoro-2(S)-hydroxy-4(R)-[2-(1H-indol-3-yl)-ethylcarbamoyl]-7-methyl-octyl}-amide] | 107 to 108 |

Next, values leading:

| melting point [°C] | SMILES |
| --- | --- |
| 178 to 179 | Cc1cccc(C[C@H](C[C@H](O)[C@H](Cc2ccccc2)NC(=O)c2cnc3ccccc3n2)C(N)=O)c1 [Example 293, Quinoxaline-2-carboxylic acid (1(S)-benzyl-4(R)-carbamoyl-2(S)-hydroxy-5-m-tolyl-pentyl)-amide] |
| 110 to 112 | O=C(N[C@@H](Cc1ccccc1)[C@@H](O)C[C@H](C(=O)NO)C1(O)CCCC1)c1cnc2ccccc2n1 [Example 281, Quinoxaline-2-carboxylic acid [1(S)-benzyl-2(S)-hydroxy-4(S)-hydroxycarbamoyl-4-(1-hydroxy-cyclopentyl)-butyl]-amide] |
| 171 to 173 | NC(=O)[C@H](Cc1ccccc1F)C[C@H](O)[C@H](Cc1ccccc1)NC(=O)c1cnc2ccccc2n1 [Example 280, Quinoxaline-2-carboxylic acid [1(S)-benzyl-4(R)-carbamoyl-5-(2-fluoro-phenyl)-2(S)-hydroxy-pentyl]-amide] |
| 118 to 123 | CC1(C)CCC(O)([C@H](C[C@H](O)[C@H](Cc2ccccc2)NC(=O)c2cnc3ccccc3n2)C(=O)NO)CC1 [Example 305, Quinoxaline-2-carboxylic acid [1(S)-benzyl-2(S)-hydroxy-4(S)-hydroxycarbamoyl-4-(1-hydroxy-4,4-dimethyl-cyclohexyl)-butyl]-amide] |
| 147 to 148 | COc1cccc(C[C@H](C[C@H](O)[C@H](Cc2ccccc2)NC(=O)c2cnc3ccccc3n2)C(N)=O)c1 [Example 299, Quinoxaline-2-carboxylic acid [1(S)-benzyl-4(R)-carbamoyl-2(S)-hydroxy-5-(3-methoxy-phenyl)-pentyl]-amide] |
| 188 to 190 | CC1(C)CC([C@H](C[C@H](O)[C@H](Cc2ccccc2)NC(=O)c2cnc3ccccc3n2)C(N)=O)CC(C)(C)C1 [Example 179, Quinoxaline-2-carboxylic acid [1(S)-benzyl-4(S)-carbamoyl-2(S)-hydroxy-4-(3,3,5,5-tetramethyl-cyclohexyl)-butyl]-amide] |
| 216 to 217 | NC(=O)[C@@H](C[C@H](O)[C@H](Cc1ccccc1)NC(=O)c1cnc2ccccc2n1)C1CCCCCC1 [Example 181, Quinoxaline-2-carboxylic acid (1(S)-benzyl-4(S)-carbamoyl-4-cycloheptyl-2(S)-hydroxy-butyl)-amide] |
| 217 to 219 | CC(C)(F)CC[C@H](C[C@H](O)[C@H](Cc1ccccc1)NC(=O)c1cnc2ccccc2n1)C(=O)N1CCC[C@H]1CO [Example 239, Quinoxaline-2-carboxylic acid [1(S)-benzyl-7-fluoro-2(S)-hydroxy-4(R)-(2(S)-hydroxymethyl-pyrrolidine-1-carbonyl)-7-methyl-octyl]-amide] |
| 78 to 80 | CC(C)(F)CC[C@H](C[C@H](O)[C@H](Cc1ccccc1)NC(=O)c1cnc2ccccc2n1)C(=O)NCCc1ccncc1 [Example 221, Quinoxaline-2-carboxylic acid [1(S)-benzyl-7-fluoro-2(S)-hydroxy-7-methyl-4(R)-(2-pyridin-4-yl-ethylcarbamoyl)-octyl]-amide] |
| 227 to 228 | CCCC1CCC(O)([C@H](C[C@H](O)[C@H](Cc2ccccc2)NC(=O)c2cnc3ccccc3n2)C(N)=O)CC1 (stereo partly drawn) [Example 300, Quinoxaline-2-carboxylic acid [1(S)-benzyl-4(S)-carbamoyl-2(S)-hydroxy-4-(1-hydroxy-4-propyl-cyclohexyl)-butyl]-amide] |
| 221 to 222 | CC1CC(C)CC([C@@H](C[C@H](O)[C@H](Cc2ccccc2)NC(=O)c2cnc3ccccc3n2)C(N)=O)C1 (stereo partly drawn) [Example 210, Quinoxaline-2-carboxylic acid [1(S)-benzyl-4(R)-carbamoyl-4-(3,5-dimethyl-cyclohexyl)-2(S)-hydroxy-butyl]-amide] |
| 111 to 115 | CC(C)(F)CC[C@H](C[C@H](O)[C@H](Cc1ccccc1)NC(=O)c1cnc2ccccc2n1)C(=O)NCC1CCCO1 (stereo partly drawn) [Example 240, Quinoxaline-2-carboxylic acid {1(S)-benzyl-7-fluoro-2(S)-hydroxy-7-methyl-4(R)-[(tetrahydrofuran-2-ylmethyl)-carbamoyl]-octyl}-amide] |
| 192 to 195 | NC(=O)[C@@H](C[C@H](O)[C@H](Cc1ccccc1)NC(=O)c1cnc2ccccc2n1)C1(O)CCCC1 [Example 277, Quinoxaline-2-carboxylic acid [1(S)-benzyl-4(S)-carbamoyl-2(S)-hydroxy-4-(1-hydroxy-cyclopentyl)-butyl]-amide] |
| 210 to 211 | NC(=O)[C@@H](C[C@H](O)[C@H](Cc1ccccc1)NC(=O)c1cnc2ccccc2n1)C1(O)CCCCC1 [Example 260, Quinoxaline-2-carboxylic acid [1(S)-benzyl-4(S)-carbamoyl-2(S)-hydroxy-4-(1-hydroxy-cyclohexyl)-butyl]-amide] |
| 133 to 134 | O=C(N[C@@H](Cc1ccccc1)[C@@H](O)C[C@H](C(=O)NO)C1(O)C2CC3CC(C2)CC1C3)c1cnc2ccccc2n1 (stereo partly drawn) [Example 297, Quinoxaline-2-carboxylic acid [1(S)-benzyl-2(S)-hydroxy-4(S)-(2-hydroxy-adamantan-2-yl)-4-hydroxycarbamoyl-butyl]-amide] |
| 176 to 179 | NC(=O)[C@H](Cc1cccc(F)c1)C[C@H](O)[C@H](Cc1ccccc1)NC(=O)c1cnc2ccccc2n1 [Example 292, Quinoxaline-2-carboxylic acid [1(S)-benzyl-4(R)-carbamoyl-5-(3-fluoro-phenyl)-2(S)-hydroxy-pentyl]-amide] |
